Experimental data from patent US20130252886A1, “METHODS OF DELAYING AND TREATING DIABETES” (priority 2010, published 2013).

Legend:
Assay type in all cases: in vivo
female NOD mice = experiment: Diabetes prevention/delayed onset study, fasting blood glucose
Description: Normally, ninety to one hundred percent of female NOD mice, available, for example, from Jackson Laboratory, develop diabetes by 30 weeks of age. Two treatments were designed to study delaying the onset of diabetes and diabetes intervention in NOD mice. The first examined therapies in NOD mice beginning at 8 weeks of age to delay the onset of diabetes onset.
In the diabetes prevention/delayed onset study, mice were divided into five groups. […] Group 3 received 0.4 units insulin subcutaneously just prior to consuming food.
Female NOD mice (Jackson Laboratory) were allowed to access food ad lib overnight. A 12 hour light-dark cycle was maintained and mice were housed in accordance with the NIH Animal Care and Use guidelines. Food was removed for eight hours during the day and the fasting blood glucose was tested daily at the end of the eight hour fast.
The control group received vegetable oil to the fur without anything else. […] The insulin only group was given 0.4 units insulin (SQ) just before feeding.
Diabetes was defined as a fasting blood glucose ≧200 mg/dl on three consecutive days. The average of the fasting blood glucose over the three days was included in the calculation of the average for each group in the prevention data (see Table 1 and FIG. 1).

[1] = Average body weight / lean body mass of NOD mice; details: 30 mg/kg GABA and/or 0.4 U insulin groups, FIGS. 3 and 4
Description: FIGS. 3 and 4 show the average weight for the NOD mice in each group during the course of the experiment. The x-axis (age of mouse in weeks) corresponds to both the delayed onset and treatment regimens, depending on when the diagnosis of diabetes was made.

[2] = tested on: Female NOD mice (NOD/ShiLtJ, Taconic); experiment: Insulin requirement and blood glucose in diabetic NOD mice, GABA vs lysine controls (Example 6); details: range over the 9 week study period; GABA 60 or 90 mg/kg or lysine 8 mg/kg PO BID before insulin
Description: Female NOD mice (NOD/ShiLtJ, Taconic) were housed in accordance with NIH Animal Use and Welfare guidelines with 12 hour light-dark cycle beginning at 9 weeks of age. The animals were fed a standard rodent diet ad lib. Blood glucose was measured weekly using a Freestyle glucometer, and then twice daily once it was determined they had diabetes.
Mice were considered diabetic if a single non-fasting blood glucose measurement was […]. For about eight weeks before the mice became diabetic, their average fasting blood glucose was 102 mg/dl. Once diabetic, blood glucose levels were measured twice daily, approximately eight hours apart. All of the mice received insulin subcutaneously twice daily and the dosage was adjusted as needed. Three diabetic mice were randomly designated as controls and were given the amino acid lysine (8 mg/kg) orally (PO) twice a day before the administration of insulin.

Compound	Average Fasting Blood Glucose (female NOD mice; 13 weeks of age, treatment just before feeding (30 mg/kg GABA PO and/or 0.4 U insulin SQ))	Average Fasting Blood Glucose (female NOD mice; 15 weeks of age, treatment just before feeding)	Average Fasting Blood Glucose (female NOD mice; 17 weeks of age, treatment just before feeding)	Average Fasting Blood Glucose (female NOD mice; 19 weeks of age, treatment just before feeding)	Average Fasting Blood Glucose (female NOD mice; 21 weeks of age, treatment just before feeding)	Average Fasting Blood Glucose (female NOD mice; 22 weeks of age, treatment just before feeding)	Average Fasting Blood Glucose (female NOD mice; 24 weeks of age, treatment just before feeding)	Average Fasting Blood Glucose (female NOD mice; 26 weeks of age, treatment just before feeding)	average weight / lean body mass [1]	insulin requirements [2]
Insulin: exogenous insulin given subcutaneously, 0.4 units just prior to consuming food [reference compound]	82 mg/dL	114 mg/dL	162 mg/dL	134 mg/dL	150 mg/dL	188 mg/dL	195 mg/dL	260 mg/dL	increased body mass throughout the study	–
NCCCC[C@H](N)C(=O)O [lysine, reference compound]	–	–	–	–	–	–	–	–	–	0.030-0.047 units/day
